# Experimental data reported in patent US9040518B2, “Chemical compounds” (GlaxoSmithKline LLC, priority 2010, dated 2015).
# Counter-ions that a name gives are not always drawn.
# Molecular target: ileal bile acid cotransporter (iBAT) (Homo sapiens (Human), UniProt Q12908)
# Test: Human iBAT inhibition: [3H]-taurocholate uptake into HEK293 cells expressing human iBAT
# Assay type: cell-based
# Details: HEK293 cells transduced with human iBAT Bacmam virus, 90 minutes at ambient temperature, mean of at least 2 datapoints
# Sequence of ileal bile acid cotransporter (iBAT) (Q12908 whole entry): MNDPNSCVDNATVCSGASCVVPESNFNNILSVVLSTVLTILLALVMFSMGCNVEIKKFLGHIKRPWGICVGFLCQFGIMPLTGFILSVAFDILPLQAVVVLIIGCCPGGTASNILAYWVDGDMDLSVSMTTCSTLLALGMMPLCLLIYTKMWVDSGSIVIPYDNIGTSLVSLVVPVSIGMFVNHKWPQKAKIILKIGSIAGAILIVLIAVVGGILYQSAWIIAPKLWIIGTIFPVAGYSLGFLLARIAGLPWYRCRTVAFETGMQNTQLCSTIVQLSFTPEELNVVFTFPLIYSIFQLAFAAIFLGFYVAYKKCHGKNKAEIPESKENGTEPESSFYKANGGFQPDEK
row,Structure (SMILES),IC50
1,"CCCC[C@]1(CC)CS(=O)(=O)c2cc(CN[C@@H](CSSC[C@H](N)C(=O)O)C(=O)O)c(OC)cc2[C@@H](c2ccccc2)N1 [Example 53, N-{[(3R,5R)-3-butyl-3-ethyl-7-(methyloxy)-1,1-dioxido-5-phenyl-2,3,4,5-tetrahydro-1,4-benzothiazepin-8-yl]methyl}-L-cystine bis-ammonium salt]",0.067 µM
2,"CCCC[C@]1(CC)CS(=O)(=O)c2cc(CN(C)CC(=O)O)c(OC)cc2[C@@H](c2ccccc2)N1 [Example 49, N-{[(3R,5R)-3-butyl-3-ethyl-7-(methyloxy)-1,1-dioxido-5-phenyl-2,3,4,5-tetrahydro-1,4-benzothiazepin-8-yl]methyl}-N-methylglycine ammonium salt]",0.041 µM
3,"CCCC[C@]1(CC)CS(=O)(=O)c2cc(/C=C/P(=O)(O)O)c(OC)cc2[C@@H](c2ccccc2)N1 [Example 55, {(E)-2-[(3R,5R)-3-butyl-3-ethyl-7-(methyloxy)-1,1-dioxido-5-phenyl-2,3,4,5-tetrahydro-1,4-benzothiazepin-8-yl]ethenyl}phosphonic acid bis-ammonium salt]",0.131 µM
4,"CCCC[C@]1(CC)CS(=O)(=O)c2cc(CCC(=O)NS(C)(=O)=O)c(OC)cc2[C@@H](c2ccccc2)N1 [Example 11, 3-[(3R,5R)-3-butyl-3-ethyl-7-(methyloxy)-1,1-dioxido-5-phenyl-2,3,4,5-tetrahydro-1,4-benzothiazepin-8-yl]-N-(methylsulfonyl)propanamide]",0.02 µM
